System: P. fluorescens strain that is susceptible to kanamycin
Assay: Growth inhibition of P. fluorescens in 8% D2O, read from deuterated vs undeuterated membrane lipid ions by MALDI mass spectrometry
Assay type: cell-based, Pseudomonas fluorescens
Conditions: range of antibiotic concentrations, FIG. 2
Protocol: In FIG. 1 is shown eight MALDI mass spectra from about 680 to 730 m/z in negative ionization mode of membrane lipids extracted from a P. fluorescens strain that is susceptible to kanamycin. The aforementioned P. fluorescens strain was grown in seven environments containing Mueller-Hinton media and water containing 8% D2O, with each of the seven environments also having a concentration of kanamycin from 0 μg/mL to 200 μg/mL.
Extract samples using the method of embodiment 1b, as follows: skip optional step 2 of embodiment 1b; perform step 3 of embodiment 1b by drying the plate at 80° C. for about 5 min; perform step 4 of embodiment 1b by applying 1 μL of a solution of chloroform-methanol-water at a ratio by volume of 12:6:1, to which 10 mg/mL of beta-carboline has been added.
3. […]
In FIG. 1 can be seen multiple spectra for samples of a P. fluorescens strain that is susceptible to kanamycin, grown under different conditions, then extracted with a method of embodiment 1d and analyzed with a method of embodiment 2 using negative ionization mode. […]
In FIG. 2 can be seen a graph of the ratio of heavy/light LA ions from the spectra in FIG. 1, where light LA is measured as the intensity of the ion peak at 688.5 m/z and heavy LA is measured as the intensity of the ion peak at 692.5 m/z.

## CC1(C)S[C@@H]2[C@H](NC(=O)C(C(=O)O)c3ccccc3)C(=O)N2[C@H]1C(=O)O (stereo partly shown) [carbenicillin]
  relationship between heavy/light ratio and antibiotic concentration: lowest at the highest antibiotic concentrations

From US20220364139A1, “METHODS FOR DETERMINING GROWTH AND RESPONSE” (PATAIGIN, LLC, priority 2019, published 2022)
